From patent publication EP4596561A1, “PHOSPHORUS-CONTAINING COMPOUND, PHARMACEUTICAL COMPOSITION AND USE THEREOF” (Suzhou Genhouse Bio Co., Ltd., priority 2022, dated 2024)
Where two headings read alike, the source gives them in different places.

Assays:
[1] = Stability test in liver microsomes; assay type: in vitro ADME; conditions: Human liver microsomes, 0.5 mg/mL, 1.0 µM substrate
Description: (§1) Phase I metabolic stability of the test compounds in liver microsomes of CD-1 mice, Sprague-Dawley rats, and humans was assessed.
(§2) The animal and human liver microsomes used in the test system were purchased from Xenotech, Corning, or other qualified suppliers and stored in a freezer at a temperature below -60 °C prior to use. The information of the animal and human liver microsomes used was as follows:
(§3) The test samples and the reference compounds were separately incubated with animal and human liver microsomes at 37±1 °C for a period of incubation time of up to 60 min. The samples were taken out at the indicated time points, and the reaction was stopped with acetonitrile or another organic solvent containing an internal standard. After centrifugation, the resulting supernatants were assayed by the liquid chromatography-tandem mass spectrometry (LC-MS/MS) method.
(§4) Microsomes of each species were diluted into a 2× working solution with a 100 mM potassium phosphate buffer. […]
(§5) Incubation was performed in a 96-well plate. Eight incubation plates were prepared and designated T0, T5, T15, T30, T45, T60, Blank60, and NCF60, respectively. The first 6 plates corresponded to reaction time points of 0 min, 5 min, 15 min, 30 min, 45 min, and 60 min, respectively. No test sample or reference compound was added to the Blank60 plate, and samples were taken after 60 min of incubation. In the NCF60 plate, incubation was performed for 60 min using the potassium phosphate buffer instead of the NADPH regeneration system solution. Three replicates were made for samples in all conditions.
(§6) The microsomes and the test sample or reference compound were mixed, and then the incubation plates Blank60, T5, T15, T30, T45, and T60 except for T0 and NCF60 were placed in a 37 °C water bath for pre-incubation for about 10 min. In the incubation plate T0, a stop solution was first added, followed by the addition of the NADPH regeneration system working solution, and 98 µL of the potassium phosphate buffer was added to each sample well of the incubation plate NCF60 to initiate the reaction. After the pre-incubation of the incubation plates Blank60, T5, T15, T30, T45, and T60 was completed, 98 µL of the NADPH regeneration system working solution was added to each sample well to initiate the reaction. The reaction temperature was 37±1 °C, the final volume of the reaction was 200 µL, and the reaction system included 0.5 mg/mL microsomes, 1.0 µM substrate, 1 mM NADP, 6 mM ISO, and 1 unit/mL IDH.
(§7) At 5 min, 15 min, 30 min, 45 min, and 60 min, a cold stop solution containing an internal standard was added to the reaction plate to stop the reaction.
(§8) All the reaction plates after the reaction was stopped were shaken well and centrifuged at 3220× g at 4 °C for 20 min. After the supernatant was diluted at a certain ratio, LC-MS/MS analysis was performed.
(§9) Sample analysis was performed by the liquid chromatography-tandem mass spectrometry (LC-MS/MS) method without standard curves and quality control samples. Semi-quantitative determination was performed according to the ratio of the analyte peak area to the internal standard peak area. The retention times of the analyte and internal standard, the chromatogram acquisition, and chromatogram integration were processed using the Analyst software (Sciex, Framingham, Massachusetts, USA).
(§10) According to the well stir model, the hepatic intrinsic clearance and hepatic clearance can be converted through the following formula. CL(liver) = (CLint(liver)×Qh)/(CLint(liver)+Qh) [formula]

[2] = Stability test in liver microsomes; assay type: in vitro ADME, CD-1 mouse; conditions: mouse liver microsomes, 0.5 mg/mL, 1.0 µM substrate
Description: as §1, §2, §3, §4, §5, §6, §7, §8, §9, §10

[3] = Pharmacokinetic test in mice (low dose); assay type: in vivo, Balb/c mice; conditions: mouse, mice; for AUC(0-t): read-out: AUClast; for clearance: read-out: Cl (converted); for half-life: read-out: T1/2 (converted); for bioavailability: PO 10 mg/kg vs IV 2 mg/kg, read-out: F%; for Cmax: read-out: Cmax
[4] = system: H226 cells; assay: Pharmacodynamic test, H226 subcutaneous xenograft; assay type: in vivo, nude mice (BALB/c nu/nu)
Description: Healthy female nude mice (BALB/c nu/nu) aged 6-8 weeks were housed in an SPF environment in accordance with animal ethical guidelines. The well-growing 10^7 H226 cells were harvested through trypsin digestion, washed in phosphate-buffered saline (PBS), and then resuspended in PBS containing 50% matrigel (BD Biosciences).
Subcutaneous injection was then performed at the dorsolateral sites of the mice, and the tumor volume was measured once every three days thereafter. When the tumor volume reached around 150-200 mm^3, the mice were randomly assigned to different treatment groups. Any one of the compounds described herein was prepared accordingly and administered at an appropriate dose. Finally, the tumor growth in the nude mice was analyzed after 4 to 6 weeks based on the growth of the tumors.

[5] = Stability test in liver microsomes; assay type: in vitro ADME, SD rat; conditions: rat liver microsomes, 0.5 mg/mL, 1.0 µM substrate
Description: as §1, §2, §3, §4, §5, §6, §7, §8, §9, §10

MRT ([3]; plasma, IV 2 mg/kg) [h] | AUC(0-t) ([3]; plasma, IV 2 mg/kg) [µM·h] | clearance ([3]; plasma, IV 2 mg/kg) [mL/min/kg] | half-life ([3]; plasma, IV 2 mg/kg) [h] | MRT ([3]; plasma, PO 10 mg/kg) [h] | bioavailability ([3]; plasma) [%] | AUC(0-t) ([3]; plasma, PO 10 mg/kg) [µM·h] | Cmax ([3]; plasma, PO 10 mg/kg) [µM] | Compound | half-life at 1 µM [1] [h] | half-life at 1 µM [2] [h] | MRT ([3]; in vivo, IV 2 mg/kg) [h] | AUC(0-t) ([3]; in vivo, IV 2 mg/kg) [µM·h] | clearance ([3]; in vivo, IV 2 mg/kg) [mL/min/kg] | half-life ([3]; in vivo, IV 2 mg/kg) [h] | MRT ([3]; in vivo, PO 10 mg/kg) [h] | bioavailability ([3]; in vivo) [%] | AUC(0-t) ([3]; in vivo, PO 10 mg/kg) [µM·h] | Cmax ([3]; in vivo, PO 10 mg/kg) [µM] | half-life ([3]; in vivo, PO 10 mg/kg) [h] | half-life at 1 µM [5] [h] | also measured
 |  |  |  |  |  |  |  | CP(C)(=O)c1ccc2c(c1)c1ccccc1n2-c1ccc(C(F)(F)F)cc1 [Example 1] | > 2.42 | > 2.42 | 6.1 | 30.7 | 2.83 | 4.2 | 6.5 | 118 | 182 | 12.9 | 3.9 | > 2.42 | TGI ([4]; 50mpk QD): 50mpk QD TGI = 108.39%; TGI ([4]; 100mpk QD): 100mpk QD TGI = 113.05%
2.5 | 9.37 | 8.33 | 1.8 | 5.3 | 318 | 155 | 15.5 | CP(C)(=O)c1ccc2c(c1)c1cccnc1n2-c1ccc(C(F)(F)F)cc1 [Example 5] |  |  |  |  |  |  |  |  |  |  |  |  | half-life ([3]; plasma, PO 10 mg/kg): 2.6 h
 |  |  |  |  |  |  |  | CP(C)(=O)c1ccc2c(Oc3ccc(C(F)(F)F)cc3)cccc2c1 [Example 7] | > 2.42 | > 2.42 | 171 | 50.7 | 0.25 | 120 | 211 | 106 | 267 | 12.7 | 146 | > 2.42 | TGI ([4]; 5mpk QD): 5mpk QD TGI = 111.84%
 |  |  |  |  |  |  |  | Cn1cnc(-c2cc(P(C)(C)=O)cnc2Nc2ccc(C(F)(F)F)cc2)c1 [Example 8] | > 2.42 | > 2.42 | 6.4 | 7.94 | 10 | 5.6 | 47.2 | 300 | 119 | 14.6 | 34.2 | > 2.42 | TGI ([4]; 10mpk QD): 10mpk QD TGI = 115.60%
75 | 59.3 | 0.4 | 52 | 75.6 | 98 | 290 | 14.6 | CP(C)(=O)c1ccc(Nc2ccc(C(F)(F)F)cc2)c(-c2ccccn2)c1 [Example 10] | > 2.42 | > 2.42 |  |  |  |  |  |  |  |  |  | > 2.42 | half-life ([3]; plasma, PO 10 mg/kg): 28.2 h; TGI ([4]; 25mpk QD): 25mpk QD TGI = 100.89%
23.4 | 58.8 | 1 | 17.2 | 34.5 | 100 | 295 | 16.1 | CP(C)(=O)c1ccc(Nc2ccc(C(F)(F)F)cc2)c(-c2ncccn2)c1 [Example 12] | > 2.42 | > 2.42 |  |  |  |  |  |  |  |  |  | > 2.42 | half-life ([3]; plasma, PO 10 mg/kg): 25.6 h; TGI ([4]; 50mpk QD): 50mpk QD TGI = 111.58%
 |  |  |  |  |  |  |  | Cn1cnc(-c2cc(P(C)(C)=O)ccc2Nc2ccc(C(F)(F)F)cc2)c1 [Example 14] | > 2.42 | > 2.42 | 26.2 | 21.2 | 2.33 | 19 | 17.8 | 106 | 112 | 8.08 | 12.3 | > 2.42 | TGI ([4]; 10mpk QD): 10mpk QD TGI = 100.38%
 |  |  |  |  |  |  |  | CP(C)(=O)c1cnc(Nc2ccc(C(F)(F)F)cc2)c(-c2cn3c(n2)CCC3)c1 [Example 22] | > 2.42 | > 2.42 | 10.8 | 16.4 | 4.17 | 8.9 | 9.9 | 114 | 96.4 | 7.07 | 7.6 | > 2.42 | TGI ([4]; 10mpk QD): 10mpk QD TGI = 106.26%; TGI ([4]; 30mpk QD): 30mpk QD TGI = 113.45%
 |  |  |  |  |  |  |  | Cc1ccc(Oc2ccc(C(F)(F)F)cc2)c2ccc(P(C)(C)=O)cc12 [Example 24] | 2.77 | 1.98 |  | 22.1 | 3.3 | 11 |  | 120 | 133 | 7.82 | 16.2 | 1.37 | 
